As a reminder, the MIC is the lowest concentration that inhibits growth of the organism. Read a low MIC as greater potency.

Values after ≈ are worked out from the molar mass of the structure shown. Where only a bound is given, the exact number is not on record here.

From ChEMBL document CHEMBL3045378, “Synthesis and evaluation of 4-amino-5-phenyl-4H-[1,2,4]-triazole-3-thiol derivatives as antimicrobial agents” (2010) come the findings set out here.

Holding throughout (format): functional
Experiment [1] deals with Pseudomonas fluorescens. In words: Antibacterial activity against Pseudomonas fluorescens ATCC 3458 after 24 hr by paper disk diffusion method. Conditions: ATCC 3458, 24 h.
The test system of experiment [2] is Escherichia coli. In words: Antibacterial activity against Escherichia coli DH5[alpha] after 24 hr by paper disk diffusion method.
Experiment [3] concerns Pseudomonas fluorescens. In words: Antibacterial activity against Pseudomonas fluorescens ATCC 3458 5 to 20 ug/ml after 24 hr by paper disk diffusion method. Background: Agar diffusion results depend on both activity and mobility in agar.
Experiment [4] deals with Escherichia coli. Nature of the experiment: Antibacterial activity against Escherichia coli DH5[alpha] at 5 to 20 ug/ml after 24 hr by paper disk diffusion method.
Experiment [5] has as its system Bacillus subtilis. In words: Antibacterial activity against Bacillus subtilis ATCC 6633 5 to 20 ug/ml after 24 hr by paper disk diffusion method.
Experiment [6] concerns Pseudomonas aeruginosa. In words: Antibacterial activity against Pseudomonas aeruginosa MTCC 3363 after 24 hr by paper disk diffusion method. Conditions: MTCC 3363, 24 h.
Experiment [7] concerns Pseudomonas aeruginosa. Nature of the experiment: Antibacterial activity against Pseudomonas aeruginosa MTCC 3363 5 to 20 ug/ml after 24 hr by paper disk diffusion method.
Experiment [8] concerns Bacillus subtilis. In words: Antibacterial activity against Bacillus subtilis ATCC 6633 after 24 hr by paper disk diffusion method. Conditions: ATCC 6633, 24 h.
Experiment [9] has as its system Trichoderma. Nature of the experiment: Antifungal activity against Trichoderma sp. ATCC 5248 at 5 to 20 ug/ml after 24 hr by paper disk diffusion method.
Experiment [10] concerns Aspergillus niger. In words: Antifungal activity against Aspergillus niger ATCC 4578 at 5 to 20 ug/ml after 24 hr by paper disk diffusion method.
For experiment [11], the system named is Saccharomyces cerevisiae. Nature of the experiment: Antifungal activity against Saccharomyces cerevisiae 180 at 5 to 20 ug/ml after 24 hr by paper disk diffusion method.
The test system of experiment [12] is Trichoderma. In words: Antifungal activity against Trichoderma sp. ATCC 5248 after 24 hr by paper disk diffusion method. Conditions: ATCC 5248, 24 h.
Experiment [13] concerns Aspergillus niger. Nature of the experiment: Antifungal activity against Aspergillus niger ATCC 4578 after 24 hr by paper disk diffusion method. Particulars: ATCC 4578, 24 h.
For experiment [14], the system named is Fusarium verticillioides. In words: Antifungal activity against Fusarium verticillioides NCIM 1276 after 24 hr by paper disk diffusion method. Conditions: NCIM 1276, 24 h.
Experiment [15] has as its system Saccharomyces cerevisiae. In words: Antifungal activity against Saccharomyces cerevisiae 180 after 24 hr by paper disk diffusion method. Conditions: Saccharomyces cerevisiae, 180, 24 h.
Experiment [16] concerns Fusarium verticillioides. In words: Antifungal activity against Fusarium verticillioides NCIM 1276 at 5 to 20 ug/ml after 24 hr by paper disk diffusion method.

Consider `CO/N=C(\C(=O)N[C@@H]1C(=O)N2C(C(=O)O)=C(CSc3nc(=O)c(O)nn3C)CS[C@H]12)c1csc(N)n1` [CEFTRIAXONE], for which the minimum inhibitory concentration (MIC) in the experiment with Pseudomonas fluorescens [1], against Escherichia coli [2], in the experiment on Pseudomonas aeruginosa [6] and against Bacillus subtilis [8] was 5 µg/mL (≈ 9.02 µM) throughout. In addition, the “diameter of the inhibition zone (DIZ)” value with Pseudomonas fluorescens [3] turned out to be 16 mm; in the experiment with Escherichia coli [4] it was 16 mm; with Bacillus subtilis [5], 16 mm; in the experiment with Pseudomonas aeruginosa [7], 18 mm.
Regarding `Nn1c(Sc2ccc(C(Cl)(Cl)Cl)cc2)nnc1-c1ccccc1`, the “diameter of the inhibition zone (DIZ)” value is listed as 22 mm with Trichoderma [9]; 14 mm with Aspergillus niger [10]; 16 mm in the experiment on Saccharomyces cerevisiae [11]; 14 mm in the experiment on Pseudomonas fluorescens [3]; 14 mm in the experiment with Escherichia coli [4]; 14 mm in the experiment with Bacillus subtilis [5]. Also, the “diameter of the inhibition zone (DIZ)” value in the experiment with Pseudomonas aeruginosa [7] stood at 16 mm; with Fusarium verticillioides [16], 18 mm. Further, the MIC against Trichoderma [12], against Pseudomonas fluorescens [1], against Escherichia coli [2], against Aspergillus niger [13], in the experiment on Fusarium verticillioides [14] and in the experiment on Pseudomonas aeruginosa [6] was 5 µg/mL (≈ 13 µM) in each case. The MIC against Saccharomyces cerevisiae [15] and against Bacillus subtilis [8] was 5 µg/mL (≈ 13 µM) in each case.
On to `Nn1c(Sc2ccc(Cl)cc2)nnc1-c1ccccc1`, for which the “diameter of the inhibition zone (DIZ)” value in the experiment with Trichoderma [9], in the experiment with Aspergillus niger [10], with Saccharomyces cerevisiae [11], in the experiment with Pseudomonas fluorescens [3], with Escherichia coli [4] and in the experiment with Bacillus subtilis [5] was 16 mm in each case. Further, the “diameter of the inhibition zone (DIZ)” value in the experiment on Pseudomonas aeruginosa [7] and in the experiment on Fusarium verticillioides [16] was 16 mm each time. Moreover, the MIC against Trichoderma [12], in the experiment on Pseudomonas fluorescens [1], with Escherichia coli [2], with Aspergillus niger [13], with Fusarium verticillioides [14] and in the experiment with Pseudomonas aeruginosa [6] was 10 µg/mL (≈ 33 µM) each time. Besides, the MIC in the experiment with Saccharomyces cerevisiae [15] and with Bacillus subtilis [8] was 10 µg/mL (≈ 33 µM) throughout.
With `Nn1c(S)nnc1-c1ccccc1O`, the “diameter of the inhibition zone (DIZ)” value in the experiment with Trichoderma [9], in the experiment with Aspergillus niger [10], with Saccharomyces cerevisiae [11], in the experiment with Pseudomonas fluorescens [3], with Escherichia coli [4] and in the experiment on Bacillus subtilis [5] was 16 mm in each case. Also, the “diameter of the inhibition zone (DIZ)” value with Pseudomonas aeruginosa [7] and with Fusarium verticillioides [16] was 16 mm in each case. The MIC against Trichoderma [12], with Pseudomonas fluorescens [1], with Escherichia coli [2], with Aspergillus niger [13], with Fusarium verticillioides [14] and against Pseudomonas aeruginosa [6] was 12.5 µg/mL (≈ 60 µM) each time. Also, the MIC with Saccharomyces cerevisiae [15] and against Bacillus subtilis [8] was 12.5 µg/mL (≈ 60 µM) each time.
As for `Nn1c(Sc2ccc(S(=O)(=O)Cl)cc2)nnc1-c1ccccc1`, the “diameter of the inhibition zone (DIZ)” value in the experiment with Trichoderma [9] is reported as <12 mm; in the experiment with Aspergillus niger [10], <12 mm; with Saccharomyces cerevisiae [11], <12 mm; in the experiment with Pseudomonas fluorescens [3], <10 mm; with Escherichia coli [4], <10 mm; in the experiment on Bacillus subtilis [5], <10 mm. Also, the “diameter of the inhibition zone (DIZ)” value with Pseudomonas aeruginosa [7] is <10 mm; in the experiment with Fusarium verticillioides [16] it was <12 mm. Besides, the MIC in the experiment on Trichoderma [12], against Pseudomonas fluorescens [1], against Escherichia coli [2], against Aspergillus niger [13], in the experiment with Fusarium verticillioides [14] and against Pseudomonas aeruginosa [6] was 15 µg/mL (≈ 40.9 µM) each time. Moreover, the MIC in the experiment with Saccharomyces cerevisiae [15] and against Bacillus subtilis [8] was 15 µg/mL (≈ 40.9 µM) throughout.
As for `Nn1c(Sc2ccc([N+](=O)[O-])cc2[N+](=O)[O-])nnc1-c1ccccc1`, the “diameter of the inhibition zone (DIZ)” value in the experiment on Trichoderma [9] is on record as <12 mm; with Aspergillus niger [10] it was <12 mm; with Saccharomyces cerevisiae [11] it was <12 mm; in the experiment on Pseudomonas fluorescens [3], <10 mm; in the experiment on Escherichia coli [4], <10 mm; in the experiment with Bacillus subtilis [5] it was <10 mm. The “diameter of the inhibition zone (DIZ)” value is recorded as <10 mm in the experiment with Pseudomonas aeruginosa [7] and <12 mm in the experiment with Fusarium verticillioides [16]. The MIC with Trichoderma [12], with Pseudomonas fluorescens [1], with Escherichia coli [2], in the experiment with Aspergillus niger [13], with Fusarium verticillioides [14] and with Pseudomonas aeruginosa [6] was 15 µg/mL (≈ 41.9 µM) in each case. Besides, the MIC with Saccharomyces cerevisiae [15] and against Bacillus subtilis [8] was 15 µg/mL (≈ 41.9 µM) in each case.
Consider `Nn1c(S)nnc1-c1ccccc1`, for which the “diameter of the inhibition zone (DIZ)” value in the experiment on Trichoderma [9], in the experiment on Aspergillus niger [10], in the experiment with Saccharomyces cerevisiae [11], with Pseudomonas fluorescens [3], in the experiment on Escherichia coli [4] and in the experiment on Bacillus subtilis [5] was 16 mm throughout. The “diameter of the inhibition zone (DIZ)” value in the experiment on Pseudomonas aeruginosa [7] and in the experiment on Fusarium verticillioides [16] was 16 mm in each case. For the same compound, the MIC with Trichoderma [12], against Pseudomonas fluorescens [1], in the experiment on Escherichia coli [2], against Aspergillus niger [13], against Fusarium verticillioides [14] and against Pseudomonas aeruginosa [6] was 12.5 µg/mL (≈ 65 µM) throughout. The MIC against Saccharomyces cerevisiae [15] and against Bacillus subtilis [8] was 12.5 µg/mL (≈ 65 µM) each time.
For `CC(=O)Nn1c(S)nnc1-c1ccccc1`, the “diameter of the inhibition zone (DIZ)” value with Trichoderma [9] was <12 mm; in the experiment with Aspergillus niger [10] it was <12 mm; in the experiment with Saccharomyces cerevisiae [11], <12 mm; in the experiment on Pseudomonas fluorescens [3], <10 mm; in the experiment with Escherichia coli [4], <10 mm; in the experiment with Bacillus subtilis [5] it was <10 mm. In addition, the “diameter of the inhibition zone (DIZ)” value in the experiment on Pseudomonas aeruginosa [7] was <10 mm; in the experiment on Fusarium verticillioides [16], <12 mm. The MIC against Trichoderma [12], against Pseudomonas fluorescens [1], in the experiment with Escherichia coli [2], with Aspergillus niger [13], with Fusarium verticillioides [14] and against Pseudomonas aeruginosa [6] was 15 µg/mL (≈ 64 µM) in each case. Further, the MIC with Saccharomyces cerevisiae [15] and in the experiment with Bacillus subtilis [8] was 15 µg/mL (≈ 64 µM) each time.
Regarding `CC(=O)N1CCN(c2ccc(OCC3COC(Cn4ccnc4)(c4ccc(Cl)cc4Cl)O3)cc2)CC1` (centres undefined) [KETOCONAZOLE], the “diameter of the inhibition zone (DIZ)” value in the experiment with Trichoderma [9] is 25 mm; in the experiment on Aspergillus niger [10], 16 mm; in the experiment on Saccharomyces cerevisiae [11], 18 mm; in the experiment on Fusarium verticillioides [16], 20 mm. Also, the MIC in the experiment on Trichoderma [12], in the experiment on Aspergillus niger [13], in the experiment with Fusarium verticillioides [14] and against Saccharomyces cerevisiae [15] was 5 µg/mL (≈ 9.41 µM) throughout.
Consider `Nn1c(Sc2ccc(Br)cc2)nnc1-c1ccccc1`, for which the “diameter of the inhibition zone (DIZ)” value in the experiment on Trichoderma [9], in the experiment on Aspergillus niger [10], in the experiment with Saccharomyces cerevisiae [11], with Pseudomonas fluorescens [3], in the experiment on Escherichia coli [4] and in the experiment with Bacillus subtilis [5] was 16 mm throughout. The “diameter of the inhibition zone (DIZ)” value in the experiment with Pseudomonas aeruginosa [7] and with Fusarium verticillioides [16] was 16 mm each time. For the same compound, the MIC in the experiment on Trichoderma [12], with Pseudomonas fluorescens [1], in the experiment on Escherichia coli [2], against Aspergillus niger [13], in the experiment on Fusarium verticillioides [14] and with Pseudomonas aeruginosa [6] was 10 µg/mL (≈ 28.8 µM) in each case. For the same compound, the MIC against Saccharomyces cerevisiae [15] and in the experiment on Bacillus subtilis [8] was 10 µg/mL (≈ 28.8 µM) in each case.
